Consider five compounds from PMC3037030 (Biochimica et biophysica acta, 2010).

Assay [1] addresses T1, Acsl4 (Rattus norvegicus, UniProt O35547). The assay is described as follows: radiometric acyl-CoA synthetase assay. Format: biochemical. To be noted: read-out: Substrate / AA.
In assay [2] the target is T1, Acsl4. Format: biochemical.
Assay [3] addresses T1, Acsl4. Nature of the assay: radiometric acyl-CoA synthetase assay. Format: biochemical.
For a further assay, the target named is Acsl3 (Rattus norvegicus, UniProt Q63151). The assay is described as follows: radiometric acyl-CoA synthetase assay, […] inhibition at […]. In kind it is cell-based. To be noted: read-out: % inhibition at 10 μM.
Assay [4] deals with T1, Acsl4. Described as above. Format: cell-based. To be noted: read-out: % inhibition at 10 μM.

Molecules are shown by their SMILES. Where two headings read alike, the source gives them in different places.

T1 sequence (O35547 whole entry): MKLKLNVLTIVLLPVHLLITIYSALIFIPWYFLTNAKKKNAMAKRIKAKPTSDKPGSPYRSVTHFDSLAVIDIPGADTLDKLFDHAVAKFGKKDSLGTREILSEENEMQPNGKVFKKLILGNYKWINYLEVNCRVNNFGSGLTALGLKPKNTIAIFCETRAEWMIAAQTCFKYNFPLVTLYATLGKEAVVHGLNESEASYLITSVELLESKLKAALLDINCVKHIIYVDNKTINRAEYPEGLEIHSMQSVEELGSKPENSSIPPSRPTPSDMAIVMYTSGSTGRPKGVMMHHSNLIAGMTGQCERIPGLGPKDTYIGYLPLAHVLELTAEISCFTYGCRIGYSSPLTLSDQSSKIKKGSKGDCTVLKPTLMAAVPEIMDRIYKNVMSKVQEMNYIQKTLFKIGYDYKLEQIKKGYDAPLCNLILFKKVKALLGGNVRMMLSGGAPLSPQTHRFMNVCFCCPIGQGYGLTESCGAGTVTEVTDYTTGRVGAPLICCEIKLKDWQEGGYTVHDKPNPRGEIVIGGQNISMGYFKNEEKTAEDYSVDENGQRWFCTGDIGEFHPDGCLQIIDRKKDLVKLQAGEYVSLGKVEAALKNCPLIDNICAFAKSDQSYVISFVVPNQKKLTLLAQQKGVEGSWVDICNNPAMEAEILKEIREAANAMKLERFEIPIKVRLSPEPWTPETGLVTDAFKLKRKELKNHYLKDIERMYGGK
Sequence of Acsl3 (Q63151 whole entry): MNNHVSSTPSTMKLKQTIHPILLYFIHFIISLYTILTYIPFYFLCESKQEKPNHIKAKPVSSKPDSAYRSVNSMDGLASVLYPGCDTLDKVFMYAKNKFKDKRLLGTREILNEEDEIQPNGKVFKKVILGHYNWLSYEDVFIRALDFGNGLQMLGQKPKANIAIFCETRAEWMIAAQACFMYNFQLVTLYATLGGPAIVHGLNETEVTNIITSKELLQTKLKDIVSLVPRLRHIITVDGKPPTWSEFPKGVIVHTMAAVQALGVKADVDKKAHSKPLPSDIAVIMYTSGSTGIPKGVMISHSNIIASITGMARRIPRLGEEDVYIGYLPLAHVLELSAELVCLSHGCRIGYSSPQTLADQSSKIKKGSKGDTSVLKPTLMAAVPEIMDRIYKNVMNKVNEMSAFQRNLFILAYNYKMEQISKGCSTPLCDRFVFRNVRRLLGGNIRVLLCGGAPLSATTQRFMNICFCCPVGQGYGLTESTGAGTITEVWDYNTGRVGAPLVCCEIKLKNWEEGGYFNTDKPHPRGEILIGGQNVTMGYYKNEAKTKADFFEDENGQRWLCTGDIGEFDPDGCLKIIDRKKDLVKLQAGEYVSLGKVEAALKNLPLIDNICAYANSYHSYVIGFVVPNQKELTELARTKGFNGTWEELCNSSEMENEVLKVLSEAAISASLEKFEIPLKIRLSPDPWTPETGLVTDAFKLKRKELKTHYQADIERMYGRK

Regarding `CCCCC/C=C\C/C=C\C/C=C\C/C=C\CCCC(=O)O` [AA, arachidonic acid], the Km on Acsl4 [1] is 4.98 ± 1.41 µM.

In general, Ki refers to the dissociation constant of the complex between target and ligand, obtained from inhibition or displacement. A high value points to a looser hold on the target. At Acsl4 [2], `CCCC(CCC)C(=O)O` [VPA, valproate] yielded a Ki of 24.9 ± 2.61 mM.

Consider `CC/C=C\C/C=C\C/C=C\C/C=C\C/C=C\C/C=C\CCC(=O)O` [DHA, docosahexaenoic acid], for which, at Acsl4 [3] (read-out: Substrate / DHA), the Km came out at 26.6 ± 3.95 µM.

As for `CCCCCCCCCCCCCCCC(=O)O` [palmitic acid], the Km at Acsl4 [3] (read-out: Substrate / Palmitic Acid) came out at 16.7 ± 6.25 µM.

Broadly, the inhibition is the drop in the measured response relative to a control, in per cent. As to `CCC/C=C/C/C=C/C=C/C=N/NN=O` [triacsin C], the inhibition at 10 µM at Acsl3 is 90%; at Acsl4 [4] it was 85%.
